Measured values published in patent US11452714B2, “Antibacterial agents including histidine kinase inhibitors” (Regents of the University of Minnesota, priority 2017, dated 2022).
Where two headings read alike, the source gives them in different places.

Columns and labels:
histidine kinase HK853 [1] = target: T1, histidine kinase HK853 (Thermotoga maritima, UniProt Q9WZV7); assay: biochemical
T1 sequence (Q9WZV7 232-489): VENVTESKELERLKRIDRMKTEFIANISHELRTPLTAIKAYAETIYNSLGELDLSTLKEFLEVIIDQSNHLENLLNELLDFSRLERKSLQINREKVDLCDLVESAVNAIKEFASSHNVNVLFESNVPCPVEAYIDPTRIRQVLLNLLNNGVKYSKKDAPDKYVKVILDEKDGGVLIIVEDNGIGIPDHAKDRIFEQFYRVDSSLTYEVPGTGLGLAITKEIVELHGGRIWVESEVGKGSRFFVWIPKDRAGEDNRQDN
Protocol: (§1) Triton X-100 was premixed with reaction buffer to yield 0.1% (v/v) in final 25-μL reactions. Samples were mixed and incubated in the dark at RT for 1 h before quenching with 8.6 μL 2×SDS-PAGE sample loading buffer and loading 10 μL on a 10%0/stacking gel. After SDS-PAGE, in-gel fluorescence detection elucidated HK853 activity, and silver staining of the gels ensured even protein loading. Integrated density values of the fluorescent gel bands were normalized as “% Activity” with respect to a control that contained no inhibitor. Data were plotted in GraphPad Prism (available from GraphPad Software, San Diego, Calif.) with relation to the log of molar inhibitor to determine IC50 values, using EQUATION 1.

histidine kinase HK853 [2] = target: T1, histidine kinase HK853; conditions: for inhibition of HK853: non-native bases or nucleosides, in words
Protocol: as §1

HK853 = target: T2, HK853 (Thermotoga maritima, UniProt Q9WZV7); conditions: for inhibition of HKs: in words; for IC50 values (95% confidence interval), n = 2: riluzole analogs, second TABLE 3, 0.1% Triton X-100
T2 sequence (Q9WZV7 232-489): T1 sequence (Q9WZV7 232-489)
Protocol: Triton X-100 was premixed with reaction buffer to yield 0.1% (v/v) in final 25-μL reactions. […] Samples were mixed and incubated in the dark at RT for 1 h before quenching with 8.6 μL 4×SDS-PAGE sample loading buffer and loading 15 μL on a 10% stacking gel. After SDS-PAGE, in-gel fluorescence detection elucidated HK853 activity, and coomassie staining of the gels ensured even protein loading. Integrated density values of the fluorescent gel bands were normalized as “% Activity” with respect to a control that contained no inhibitor.

[3] = IC50, sulfonyl fluoride side chains, Example 4
[4] = purine derivatives, TABLE 2, N/I = no inhibition
[5] = IC50, purine derivatives, TABLE 2, N/I = no inhibition
[6] = phenyl-adenine derivatives, first TABLE 3, N/I = no inhibition
[7] = adenine derivatives, TABLE 1, N/I = no inhibition was observed

Question: Which IC50 (histidine kinase HK853 [1]) does the source give for `Nc1ncnc2c1ncn2C1OC(COC(=O)c2ccccc2)C(O)C1O` (stereo not drawn) here?
Answer: 192 µM

Question: How did the IC50 (histidine kinase HK853 [1]; [3]) turn out when `Nc1ncnc2c1ncn2C1OC(COC(=O)c2ccc(S(=O)(=O)F)cc2)C(O)C1O` (stereo not drawn) [6-O-benzoyl adenosine, R=SO2F] was run?
Answer: 5.3 µM

Question: Which IC50 (histidine kinase HK853 [2]; [4]) does the source give for `OCC1OC(n2cnc3c(Cl)ncnc32)C(O)C1O` (stereo not drawn) [CW19] here?
Answer: N/I

Question: How did the IC50 (histidine kinase HK853 [2]; [4]) turn out when `Nc1nc(Cl)c2nc[nH]c2n1` [CW20] was run?
Answer: 118 µM

Question: `Nc1nc(Cl)nc2[nH]cnc12` [CW22] was tested. Which IC50 (histidine kinase HK853 [2]; [4]) did it give?
Answer: 156 µM

Question: For `Nc1nc(F)nc2[nH]cnc12` [CW24], which IC50 (histidine kinase HK853 [2]; [4]) is on record?
Answer: 310 µM

Question: With `Nc1nc(F)nc2c1ncn2C1OC(CO)C(O)C1O` (stereo not drawn) [CW25] as the molecule, how does the IC50 (histidine kinase HK853 [1]; [5]) read?
Answer: 218 µM

Question: For `Cn1cnc2c(N)ncnc21` [CW29], which IC50 (histidine kinase HK853 [1]; [5]) is on record?
Answer: 150 µM

Question: With `Cn1cnc2ncnc(N)c21` [CW30] as the molecule, how does the IC50 (histidine kinase HK853 [2]; [4]) read?
Answer: N/I

Question: With `OCC1OC(n2cnc3c(Nc4ccccc4)ncnc32)C(O)C1O` (stereo not drawn) [CW35] as the molecule, how does the IC50 (histidine kinase HK853 [2]; [6]) read?
Answer: N/I

Question: Which IC50 (histidine kinase HK853 [2]; [6]) does the source give for `Clc1nc(Nc2ccccc2)c2nc[nH]c2n1` [CW36] here?
Answer: N/I

Question: Which IC50 (histidine kinase HK853 [1]) does the source give for `Clc1ccc(Nc2ncnc3[nH]cnc23)cc1` [CW37] here?
Answer: 1700 µM

Question: For `Fc1ccc(Nc2ncnc3[nH]cnc23)cc1` [CW38], which IC50 (histidine kinase HK853 [1]) is on record?
Answer: 1900 µM

Question: How did the IC50 (histidine kinase HK853 [1]) turn out when `Nc1ncnc2c1ncn2C1OC(CO)C(O)C1O` (stereo not drawn) [Compound C12] was run?
Answer: 445 µM

Question: For `Cn1cnc2c(N)ncnc21` [Compound C13], which IC50 (histidine kinase HK853 [1]; IC50, adenine derivatives, TABLE 1, N/I = no inhibition was observed) is on record?
Answer: 145 µM

Question: `c1ccc(Nc2ncnc3nc[nH]c23)cc1` [Compound C15] was tested. Which IC50 (histidine kinase HK853 [1]) did it give?
Answer: 7.6 µM

Question: Which IC50 (histidine kinase HK853 [2]; [7]) does the source give for `OCC1OC(n2cnc3c(Cl)ncnc32)C(O)C1O` (stereo not drawn) [Compound C18] here?
Answer: N/I

Question: For `CCCN(CCC)c1ncnc2c1ncn2C1OC(CO)C(O)C1O` (stereo not drawn) [Compound C19], which IC50 (histidine kinase HK853 [1]) is on record?
Answer: 1100 µM

Question: With `Cn1cnc2ncnc(N)c21` [Compound C26] as the molecule, how does the IC50 (histidine kinase HK853 [2]; [7]) read?
Answer: N/I

Question: How did the “inhibition of HK853” value (histidine kinase HK853 [2]) turn out when `Nc1nc2nc[nH]c2c(=O)[nH]1` [Guanine, reference compound] was run?
Answer: did not appear to inhibit HK853

Question: Which “inhibition of HK853” value (histidine kinase HK853 [2]) does the source give for `Nc1nc2c(ncn2[C@@H]2O[C@H](CO)[C@@H](O)[C@H]2O)c(=O)[nH]1` [Guanosine, reference compound] here?
Answer: did not appear to inhibit HK853

Question: With `OC[C@H]1O[C@@H](n2cnc3c(O)ncnc32)[C@H](O)[C@@H]1O` [Inosine, reference compound] as the molecule, how does the “inhibition of HK853” value (histidine kinase HK853 [2]) read?
Answer: did not appear to inhibit HK853

Question: What does the source list for `Nc1nc2c(Cl)cc(Cl)cc2s1` [Rilu-10]?
Answer: inhibition of HKs (HK853): did not significantly inhibit HKs; IC50 values (95% confidence interval), n = 2 (HK853): No Inhibition

Question: Which “inhibition of HKs” value (HK853) does the source give for `Nc1nc2cc(Br)c(Br)cc2s1` [Rilu-11] here?
Answer: did not significantly inhibit HKs

Question: And the “IC50 values (95% confidence interval), n = 2” value (HK853)?
Answer: No Inhibition

Question: With `Nc1nc2ccc(NCc3ccc(S(=O)(=O)F)cc3)cc2s1` [riluzole analog with benzyl SO2F] as the molecule, how does the IC50 (histidine kinase HK853 [1]; [3]) read?
Answer: 2.1 µM
